Test results reported in patent US12479848B2, “Substituted fused heteroaromatic bicyclic compounds as kinase inhibitors and the use thereof” (IMPACT THERAPEUTICS (SHANGHAI), INC, priority 2019, dated 2025).

Experiments:
ATR/ATRIP enzyme = target: T1, ATR/ATRIP enzyme (Homo sapiens, UniProt Q13535); assay: ATR enzyme activity experiment (HTRF); format: biochemical; details: for IC50: HTRF, p53 substrate, 30 minutes at room temperature; for inhibition at 0.05 µM: read-out: Inh %, inhibitory effects on ATR kinase activity at 50 nM
T1 construct: purchased Eurofins 14-953
Protocol: The test compound was diluted to a 4× final concentration with reaction buffer (25 mM HEPES (pH8.0), 10 mM MnCl2, 1% glycerol, 0.01% Brij-35, 5 mM DTT and 0.1% BSA). […] The mixture was centrifuged at 1000 rpm for 1 minute, and reacted at room temperature protected from light for 30 minutes. Then 5 μL of EDTA stop solution (250 mM) was added to stop the reaction. […] Data were analyzed using GraphPad Prism6.0, and fitted using the curve equation: Y=Bottom+(Top−Bottom)/(1+10^((Log IC50−X)*HillSlope)) and IC50 values were calculated.

[1] = tested on: human lung cancer cell NCI-H460; assay: MTT proliferation assay, NCI-H460; format: cell-based; details: Homo sapiens, NCI-H460, 96 h, 4 days, read-out: IC50 (nM), inhibition of proliferation of NCI-H460
Protocol: (§1) The cells were seeded into 96-well cell culture plate with a density of 2000/4000 cells per well and incubated overnight in a 5% CO2 incubator at 37° C. […] 5 L diluent of each concentration was added to 120 μL of medium (25 times diluted) and mixed by shaking. The overnight cell plates were taken and the culture medium was removed, 195 μL of fresh medium was added to each well, and 5 μL of diluted medium containing the corresponding concentration of the test compound was added respectively (the final concentration of DMSO is 1%), and the culture plate was then placed in a 5% CO2 incubator at 37° C. for 4 days. After removing the original solution, 100 μL of fresh serum-free DMEM medium containing MTT (0.5 mg/mL) was added to each well, the culture was continued. […] Cell viability (%)=(ODcompound−ODbackground)/(ODDMSO−ODbackground)×100. GraphPad Prism 6.0 was used to analyze the data. The inhibitory activity of compounds on cell proliferation was plotted based on cell viability and the logarithm of compound concentration.

[2] = tested on: human colon cancer cell LoVo; assay: MTT proliferation assay, LoVo; format: cell-based; details: Homo sapiens, LoVo, 96 h, 4 days, read-out: IC50 (nM), inhibition of proliferation of LoVo
Protocol: as §1, with “5 μL” for “5 L”, “viability (%)=(ODcompound−ODbackground)/(ODDMSO-ODbackground)×100.” for “viability (%)=(ODcompound−ODbackground)/(ODDMSO−ODbackground)×100.”

T1 sequence (Q13535 whole entry): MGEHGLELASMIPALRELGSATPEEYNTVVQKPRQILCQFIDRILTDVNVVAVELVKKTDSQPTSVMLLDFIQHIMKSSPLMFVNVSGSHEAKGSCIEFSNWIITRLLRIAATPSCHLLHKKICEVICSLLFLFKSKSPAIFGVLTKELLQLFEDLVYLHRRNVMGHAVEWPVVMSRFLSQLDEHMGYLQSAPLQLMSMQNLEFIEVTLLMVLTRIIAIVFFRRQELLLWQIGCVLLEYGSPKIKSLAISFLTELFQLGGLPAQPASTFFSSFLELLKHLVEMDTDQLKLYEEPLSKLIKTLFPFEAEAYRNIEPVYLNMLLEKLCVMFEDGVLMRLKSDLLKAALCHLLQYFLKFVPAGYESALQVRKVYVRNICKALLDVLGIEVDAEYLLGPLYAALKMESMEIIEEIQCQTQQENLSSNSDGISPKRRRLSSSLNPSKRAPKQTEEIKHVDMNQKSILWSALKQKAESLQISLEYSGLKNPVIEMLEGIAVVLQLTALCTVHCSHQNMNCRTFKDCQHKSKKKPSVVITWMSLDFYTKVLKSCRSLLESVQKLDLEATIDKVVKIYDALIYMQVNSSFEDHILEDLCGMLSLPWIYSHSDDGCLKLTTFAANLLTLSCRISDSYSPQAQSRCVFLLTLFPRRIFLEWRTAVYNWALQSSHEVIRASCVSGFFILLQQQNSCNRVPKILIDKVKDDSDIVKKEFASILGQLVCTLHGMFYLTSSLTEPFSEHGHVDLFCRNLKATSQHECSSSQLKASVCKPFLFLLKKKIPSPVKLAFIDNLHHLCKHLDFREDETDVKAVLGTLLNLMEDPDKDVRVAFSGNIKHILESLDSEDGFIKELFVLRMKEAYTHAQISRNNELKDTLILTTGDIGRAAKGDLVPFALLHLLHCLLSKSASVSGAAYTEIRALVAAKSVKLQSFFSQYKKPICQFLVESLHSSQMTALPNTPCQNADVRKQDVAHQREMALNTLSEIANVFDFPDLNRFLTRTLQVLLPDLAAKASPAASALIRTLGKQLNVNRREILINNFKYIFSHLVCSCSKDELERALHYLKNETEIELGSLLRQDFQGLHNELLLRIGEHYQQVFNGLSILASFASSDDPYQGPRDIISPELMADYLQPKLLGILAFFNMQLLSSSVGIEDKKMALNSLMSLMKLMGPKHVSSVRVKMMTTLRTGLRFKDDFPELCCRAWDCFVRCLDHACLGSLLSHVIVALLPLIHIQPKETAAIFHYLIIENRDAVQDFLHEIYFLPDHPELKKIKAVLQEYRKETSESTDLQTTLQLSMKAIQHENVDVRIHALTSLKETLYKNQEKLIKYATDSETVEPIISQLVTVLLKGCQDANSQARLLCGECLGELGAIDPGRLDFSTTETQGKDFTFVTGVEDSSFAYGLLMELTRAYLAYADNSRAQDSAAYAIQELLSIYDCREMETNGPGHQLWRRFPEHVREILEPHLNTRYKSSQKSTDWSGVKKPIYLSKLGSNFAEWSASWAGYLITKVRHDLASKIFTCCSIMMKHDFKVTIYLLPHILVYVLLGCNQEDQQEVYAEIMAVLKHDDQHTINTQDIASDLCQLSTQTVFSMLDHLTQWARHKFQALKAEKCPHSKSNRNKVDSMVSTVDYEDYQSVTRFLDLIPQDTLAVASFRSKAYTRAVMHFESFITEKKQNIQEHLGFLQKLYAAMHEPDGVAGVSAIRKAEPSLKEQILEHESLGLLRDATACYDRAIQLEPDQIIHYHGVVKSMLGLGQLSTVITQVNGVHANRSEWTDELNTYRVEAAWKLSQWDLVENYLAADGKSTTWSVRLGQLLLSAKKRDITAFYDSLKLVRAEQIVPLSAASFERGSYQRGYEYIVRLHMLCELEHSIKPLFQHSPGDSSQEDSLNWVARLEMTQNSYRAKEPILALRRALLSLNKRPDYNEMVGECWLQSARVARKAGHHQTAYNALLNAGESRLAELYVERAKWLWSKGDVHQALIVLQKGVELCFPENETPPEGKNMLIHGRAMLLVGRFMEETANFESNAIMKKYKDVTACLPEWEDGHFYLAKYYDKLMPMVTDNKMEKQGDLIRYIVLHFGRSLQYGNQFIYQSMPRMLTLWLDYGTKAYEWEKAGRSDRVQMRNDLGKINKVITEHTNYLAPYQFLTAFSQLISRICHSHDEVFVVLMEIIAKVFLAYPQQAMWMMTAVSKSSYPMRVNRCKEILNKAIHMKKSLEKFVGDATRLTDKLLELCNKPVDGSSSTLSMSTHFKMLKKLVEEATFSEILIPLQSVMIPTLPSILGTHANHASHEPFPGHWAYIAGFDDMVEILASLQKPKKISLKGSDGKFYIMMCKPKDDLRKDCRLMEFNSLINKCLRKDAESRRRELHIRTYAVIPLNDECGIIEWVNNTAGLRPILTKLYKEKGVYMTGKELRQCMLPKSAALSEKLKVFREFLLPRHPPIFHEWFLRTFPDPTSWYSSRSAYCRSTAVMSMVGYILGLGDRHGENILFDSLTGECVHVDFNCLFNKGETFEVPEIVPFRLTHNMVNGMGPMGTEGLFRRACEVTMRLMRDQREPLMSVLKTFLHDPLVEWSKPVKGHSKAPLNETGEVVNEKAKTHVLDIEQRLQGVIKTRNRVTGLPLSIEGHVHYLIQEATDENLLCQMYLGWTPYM
T1 sequence (Q8WXE1 whole entry partner): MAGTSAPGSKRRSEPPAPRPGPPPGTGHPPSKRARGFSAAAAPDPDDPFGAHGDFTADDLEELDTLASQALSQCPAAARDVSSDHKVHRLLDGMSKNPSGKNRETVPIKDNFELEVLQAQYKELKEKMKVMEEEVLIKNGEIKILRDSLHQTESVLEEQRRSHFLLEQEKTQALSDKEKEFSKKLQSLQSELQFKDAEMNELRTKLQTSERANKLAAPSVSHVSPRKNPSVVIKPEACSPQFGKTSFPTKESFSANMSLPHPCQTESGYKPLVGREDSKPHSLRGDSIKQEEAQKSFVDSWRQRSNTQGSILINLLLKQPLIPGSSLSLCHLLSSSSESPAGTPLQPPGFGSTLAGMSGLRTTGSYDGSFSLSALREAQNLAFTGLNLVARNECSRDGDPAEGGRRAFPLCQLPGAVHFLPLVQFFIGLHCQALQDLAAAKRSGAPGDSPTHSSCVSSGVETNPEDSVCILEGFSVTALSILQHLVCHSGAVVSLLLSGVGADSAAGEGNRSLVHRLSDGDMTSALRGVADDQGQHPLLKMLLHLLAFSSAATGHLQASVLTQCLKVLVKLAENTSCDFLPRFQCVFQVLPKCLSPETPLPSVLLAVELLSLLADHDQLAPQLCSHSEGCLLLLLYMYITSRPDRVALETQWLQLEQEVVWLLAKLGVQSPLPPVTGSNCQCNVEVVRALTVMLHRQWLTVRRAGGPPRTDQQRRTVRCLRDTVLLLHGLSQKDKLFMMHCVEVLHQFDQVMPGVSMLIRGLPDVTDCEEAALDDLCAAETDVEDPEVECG

IC50 (ATR/ATRIP enzyme)	IC50 [1]	IC50 [2]	inhibition at 0.05 µM (ATR/ATRIP enzyme)	SMILES
	1520 nM	953 nM		C[C@@H]1COC[C@@H](C)N1c1cc(-c2ccnn2C)c2cnc(-c3ccn[nH]3)n2n1 [Example 34, (3R,5R)-3,5-dimethyl-4-(4-(1-methyl-1H-pyrazol-5-yl)-7-(1H-pyrazol-5-yl)imidazo[1,5-b]pyridazin-2-yl)morpholine]
	171 nM	75.4 nM	71%	C[C@@H]1COCCN1c1cc(-c2ccc(S(C)(=O)=O)cc2)c2cnc(-c3ccn[nH]3)n2n1 [Example 35, (R)-3-methyl-4-(4-(4-(methylsulfonyl)phenyl)-7-(1H-pyrazol-5-yl)imidazo[1,5-b]pyridazin-2-yl)morpholine]
	116 nM	114 nM	63%	Cc1ccc(C)n1-c1cc(N2CCOC[C@H]2C)nn2c(-c3ccn[nH]3)ncc12 [Example 36, (R)-4-(4-(2,5-dimethyl-1H-pyrrol-1-yl)-7-(1H-pyrazol-5-yl)imidazo[1,5-b]pyridazin-2-yl)-3-methylmorpholine]
0.007 µM	58.8 nM	45 nM		CCn1nccc1-c1cc(N2CCOC[C@H]2C)nn2c(-c3ccn[nH]3)ncc12 [Example 37, (R)-4-(4-(1-ethyl-1H-pyrazol-5-yl)-7-(1H-pyrazol-5-yl)imidazo[1,5-b]pyridazin-2-yl)-3-methylmorpholine]
	419 nM	128 nM	90%	Cc1n[nH]cc1-c1cc(N2CCOC[C@H]2C)nn2c(-c3ccn[nH]3)ncc12 [Example 38, (R)-3-methyl-4-(4-(3-methyl-1H-pyrazol-4-yl)-7-(1H-pyrazol-5-yl)imidazo[1,5-b]pyridazin-2-yl)morpholine]
0.003 µM	26.1 nM	30.7 nM		Cc1ccc(-c2cc(N3CCOC[C@H]3C)nn3c(-c4cc(C)n[nH]4)ncc23)cn1 [Example 39, (R)-3-methyl-4-(7-(3-methyl-1H-pyrazol-5-yl)-4-(6-methylpyridin-3-yl)imidazo[1,5-b]pyridazin-2-yl)morpholine]
0.002 µM	17.4 nM	21.8 nM		Cc1ccccc1-c1cc(N2CCOC[C@H]2C)nn2c(-c3ccn[nH]3)ncc12 [Example 40, (R)-4-(7-(1H-pyrazol-5-yl)-4-(o-tolyl)imidazo[1,5-b]pyridazin-2-yl)-3-methylmorpholine]
0.002 µM	48.8 nM	49.5 nM		Cc1cnn(C)c1-c1cc(N2CCOC[C@H]2C)nn2c(-c3ccn[nH]3)ncc12 [Example 41, (R)-4-(4-(1,4-dimethyl-1H-pyrazol-5-yl)-7-(1H-pyrazol-5-yl)imidazo[1,5-b]pyridazin-2-yl)-3-methylmorpholine]
	76.3 nM	76.7 nM		Cc1cnccc1-c1cc(N2CCOC[C@H]2C)nn2c(-c3ccn[nH]3)ncc12 [Example 51, (R)-3-methyl-4-(4-(3-methylpyridin-4-yl)-7-(1H-pyrazol-5-yl)imidazo[1,5-b]pyridazin-2-yl)morpholine]
	95.3 nM	51 nM		C[C@@H]1COCCN1c1cc(-c2ccnc3[nH]ccc23)c2cnc(-c3ccn[nH]3)n2n1 [Example 55, (R)-4-(7-(1H-pyrazol-5-yl)-4-(1H-pyrrolo[2,3-b]pyridin-4-yl)imidazo[1,5-b]pyridazin-2-yl)-3-methylmorpholine]
	169 nM	175 nM		C[C@@H]1COCCN1c1cc(-c2ccn(CCF)n2)c2cnc(-c3ccn[nH]3)n2n1 [Example 61, (R)-4-(4-(1-(2-fluoroethyl)-1H-pyrazol-3-yl)-7-(1H-pyrazol-5-yl)imidazo[1,5-b]pyridazin-2-yl)-3-methylmorpholine]

Continued, molecule first:

SMILES	IC50 (ATR/ATRIP enzyme)	IC50 [1]	IC50 [2]	inhibition at 0.05 µM (ATR/ATRIP enzyme)
C[C@@H]1COCCN1c1cc(-c2ccnn2C)c2ncc(-c3ccn[nH]3)n2c1 [Example 1, (R)-3-methyl-4-(8-(1-methyl-1H-pyrazol-5-yl)-3-(1H-pyrazol-5-yl)imidazo[1,2-a]pyridin-6-yl)morpholine]	> 10 µM			
C[C@@H]1COCCN1c1cc(-c2cncn2C)c2ncc(-c3ccn[nH]3)n2n1 [Example 5, (R)-3-methyl-4-(8-(1-methyl-1H-imidazol-5-yl)-3-(1H-pyrazol-5-yl)imidazo[1,2-b]pyridazin-6-yl)morpholine]	0.0589 µM	1610 nM	557 nM	
Cn1nccc1-c1cc(N2CCOCC2)nn2c(-c3ccn[nH]3)ncc12 [Example 11, 4-(4-(1-methyl-1H-pyrazol-5-yl)-7-(1H-pyrazol-5-yl)imidazol[1,5-b]pyridazin-2-yl)morpholine]		159 nM	168 nM	63%
Cn1nccc1-c1cc(N2CCOCC2)nn2c(-c3ccn[nH]3)nnc12 [Example 12, 4-(8-(1-methyl-1H-pyrazol-5-yl)-3-(1H-pyrazol-5-yl)-[1,2,4]triazolo[4,3-b]pyridazin-6-yl)morpholine]		> 10000 nM	3230 nM	
C[C@@H]1COCCN1c1cc(-c2ccnn2C)c2nnc(-c3ccn[nH]3)n2n1 [Example 15, (R)-3-methyl-4-(8-(1-methyl-1H-pyrazol-5-yl)-3-(1H-pyrazol-5-yl)-[1,2,4]triazolo[4,3-b]pyridazin-6-yl)morpholine]		1920 nM	597 nM	
C[C@@H]1COCCN1c1cc(-c2ccnn2C)c2cnc(-c3cc[nH]c3)n2n1 [Example 21, (R)-3-methyl-4-(4-(1-methyl-1H-pyrazol-5-yl)-7-(1H-pyrrol-3-yl)imidazo[1,5-b]pyridazin-2-yl)morpholine]	0.00678 µM	244 nM	155 nM	
C[C@@H]1COCCN1c1cc(-c2ccnn2C)c2cnc(-c3ccc[nH]3)n2n1 [Example 22, (R)-3-methyl-4-(4-(1-methyl-1H-pyrazol-5-yl)-7-(1H-pyrrol-2-yl)imidazo[1,5-b]pyridazin-2-yl)morpholine]	0.00206 µM	1150 nM	854 nM	
C[C@@H]1COCCN1c1cc(-c2ccnn2C)c2cnc(-c3c[nH]cn3)n2n1 [Example 23, (R)-4-(7-(1H-imidazol-4-yl)-4-(1-methyl-1H-pyrazol-5-yl)imidazo[1,5-b]pyridazin-2-yl)-3-methylmorpholine]	> 1 µM	1800 nM	1530 nM	
Cc1ccc(-c2cc(N3CCOC[C@H]3C)nn3c(-c4ccn[nH]4)ncc23)cn1 [Example 24, (R)-3-methyl-4-(4-(6-methylpyridin-3-yl)-7-(1H-pyrazol-5-yl)imidazo[1,5-b]pyridazin-2-yl)morpholine]	0.002 µM	27.8 nM	34.4 nM	
C[C@@H]1COCCN1c1cc(-c2ccccc2F)c2cnc(-c3ccn[nH]3)n2n1 [Example 25, (R)-4-(4-(2-fluorophenyl)-7-(1H-pyrazol-5-yl)imidazo[1,5-b]pyridazin-2-yl)-3-methylmorpholine]	0.007 µM	40.4 nM	61.9 nM	
CC(C)n1nccc1-c1cc(N2CCOC[C@H]2C)nn2c(-c3ccn[nH]3)ncc12 [Example 26, (R)-4-(4-(1-isopropyl-1H-pyrazol-5-yl)-7-(1H-pyrazol-5-yl)imidazo[1,5-b]pyridazin-2-yl)-3-methylmorpholine]	0.006 µM	55.2 nM	68.2 nM	
C[C@@H]1COCCN1c1cc(-c2ccn[nH]2)c2cnc(-c3ccn[nH]3)n2n1 [Example 27, (R)-4-(4,7-di(1H-pyrazol-5-yl)imidazo[1,5-b]pyridazin-2-yl)-3-methylmorpholine]		287 nM	124 nM	
C[C@@H]1COCCN1c1cc(C2CC2)c2cnc(-c3ccn[nH]3)n2n1 [Example 32, (R)-4-(4-cyclopropyl-7-(1H-pyrazol-5-yl)imidazo[1,5-b]pyridazin-2-yl)-3-methylmorpholine]	0.015 µM	78.6 nM	87.3 nM	
C[C@H]1COCCN1c1cc(-c2ccnn2C)c2cnc(-c3ccn[nH]3)n2n1 [Example 33, (S)-3-methyl-4-(4-(1-methyl-1H-pyrazol-5-yl)-7-(1H-pyrazol-5-yl)imidazo[1,5-b]pyridazin-2-yl)morpholine]		256 nM	230 nM	27%
